The NIST ThermoML archive (doi:10.1016/j.jct.2013.08.013)
Numbers after ± are expanded uncertainties.

Assays:
[1] = 101 kPa, Liquid; for speed of sound: Frequency=2 MHz, Linear variable-path acoustic interferometer; for mass density: Vibrating tube method
[2] = xn = mol fraction of the nth substance listed; conditions: 101 kPa, Liquid; for speed of sound: Frequency=2 MHz, Linear variable-path acoustic interferometer; for mass density: Vibrating tube method

CCCCCCCO [heptan-1-ol]
[1]
Conditions | mass density [kg/m3] | speed of sound [m/s]
298.15 K | 818.79 ± 0.16 | 1326.5 ± 1.9
303.15 K | 815.21 ± 0.16 | 1313.6 ± 1.9
308.15 K | 811.62 ± 0.16 | 1293.1 ± 1.9

CCCCCO [pentan-1-ol]
[1]
Conditions | mass density [kg/m3] | speed of sound [m/s]
298.15 K | 810.82 ± 0.24 | 1276.2 ± 2.1
303.15 K | 807.1 ± 0.24 | 1259.5 ± 2
308.15 K | 803.38 ± 0.24 | 1248.1 ± 2

Cc1ccccc1Cl [2-chlorotoluene]
[1]
Conditions | mass density [kg/m3] | speed of sound [m/s]
298.15 K | 1077.38 ± 0.15 | 1299.8 ± 1.9
303.15 K | 1072.8 ± 0.15 | 1283.6 ± 1.9
308.15 K | 1068.21 ± 0.15 | 1265.6 ± 1.9

Cc1ccccc1Cl [2-chlorotoluene] + CCCCCO
[2]
Conditions | mass density, 298.15 K [kg/m3] | mass density, 303.15 K [kg/m3] | mass density, 308.15 K [kg/m3] | speed of sound, 298.15 K [m/s] | speed of sound, 303.15 K [m/s] | speed of sound, 308.15 K [m/s]
x1 = 0.0964 | 838.77 ± 0.23 | 834.85 ± 0.23 | 830.94 ± 0.23 | 1280.2 ± 2 | 1263 ± 2 | 1250 ± 2
x1 = 0.189 | 865.02 ± 0.22 | 860.96 ± 0.22 | 856.9 ± 0.22 | 1282.2 ± 2 | 1264 ± 2 | 1250.2 ± 2
x1 = 0.294 | 894.17 ± 0.21 | 889.95 ± 0.21 | 885.73 ± 0.21 | 1281.9 ± 2 | 1262.5 ± 2 | 1247.7 ± 2
x1 = 0.388 | 919.71 ± 0.2 | 915.37 ± 0.2 | 911.06 ± 0.2 | 1280.9 ± 2 | 1260.7 ± 2 | 1244.5 ± 1.9
x1 = 0.4962 | 948.58 ± 0.18 | 944.07 ± 0.18 | 939.74 ± 0.18 | 1279 ± 2 | 1258.1 ± 1.9 | 1240.9 ± 1.9
x1 = 0.5892 | 972.97 ± 0.17 | 968.37 ± 0.17 | 963.98 ± 0.17 | 1277.5 ± 2 | 1255.8 ± 1.9 | 1238.3 ± 1.9
x1 = 0.697 | 1000.83 ± 0.16 | 996.18 ± 0.16 | 991.75 ± 0.16 | 1278 ± 1.9 | 1256.1 ± 1.9 | 1238 ± 1.9
x1 = 0.8057 | 1028.54 ± 0.16 | 1023.88 ± 0.16 | 1019.37 ± 0.16 | 1281 ± 1.9 | 1260.1 ± 1.9 | 1242.2 ± 1.9
x1 = 0.8949 | 1051.02 ± 0.16 | 1046.43 ± 0.16 | 1041.83 ± 0.16 | 1287 ± 1.9 | 1267.2 ± 1.9 | 1250 ± 1.9
x1 = 1 | 1077.38 ± 0.15 | 1072.8 ± 0.15 | 1068.21 ± 0.15 | 1299.8 ± 1.9 | 1283.6 ± 1.9 | 1265.6 ± 1.9

CCCO [propan-1-ol]
[1]
Conditions | mass density [kg/m3] | speed of sound [m/s]
298.15 K | 799.65 ± 0.17 | 1206.5 ± 1.8
303.15 K | 795.65 ± 0.17 | 1188.6 ± 1.8
308.15 K | 791.65 ± 0.17 | 1171.8 ± 1.8

CCCCCCO [hexan-1-ol]
[1]
Conditions | mass density [kg/m3] | speed of sound [m/s]
298.15 K | 815.31 ± 0.4 | 1303.2 ± 2.4
303.15 K | 811.7 ± 0.4 | 1286.4 ± 2.4
308.15 K | 808.06 ± 0.4 | 1269.7 ± 2.3

CCCCCCO [hexan-1-ol] + Cc1ccccc1Cl
[2], x2 = 0
Conditions | mass density [kg/m3] | speed of sound [m/s]
298.15 K | 815.31 ± 0.4 | 1303.2 ± 2.4
303.15 K | 811.7 ± 0.4 | 1286.4 ± 2.4
308.15 K | 808.06 ± 0.4 | 1269.7 ± 2.3

Cc1ccccc1Cl [2-chlorotoluene] + CCCCCCO
[2]
Conditions | mass density, 298.15 K [kg/m3] | mass density, 303.15 K [kg/m3] | mass density, 308.15 K [kg/m3] | speed of sound, 298.15 K [m/s] | speed of sound, 303.15 K [m/s] | speed of sound, 308.15 K [m/s]
x1 = 0.0974 | 839.69 ± 0.37 | 835.89 ± 0.37 | 832.09 ± 0.37 | 1304.1 ± 2.3 | 1287 ± 2.3 | 1268.7 ± 2.3
x1 = 0.1968 | 864.67 ± 0.34 | 860.71 ± 0.34 | 856.77 ± 0.34 | 1302 ± 2.2 | 1284.3 ± 2.2 | 1266 ± 2.2
x1 = 0.3046 | 892 ± 0.31 | 887.87 ± 0.3 | 883.78 ± 0.3 | 1298.3 ± 2.2 | 1280.2 ± 2.2 | 1260.7 ± 2.2
x1 = 0.3967 | 915.57 ± 0.27 | 911.34 ± 0.27 | 907.1 ± 0.27 | 1294.3 ± 2.1 | 1275.7 ± 2.1 | 1255.7 ± 2.1
x1 = 0.489 | 939.38 ± 0.24 | 934.99 ± 0.24 | 930.68 ± 0.24 | 1290.1 ± 2.1 | 1271.1 ± 2.1 | 1250.9 ± 2.1
x1 = 0.5955 | 967.24 ± 0.21 | 962.7 ± 0.21 | 958.3 ± 0.21 | 1286.1 ± 2 | 1266.2 ± 2 | 1246.3 ± 2
x1 = 0.6902 | 992.34 ± 0.19 | 987.72 ± 0.19 | 983.26 ± 0.19 | 1283.6 ± 2 | 1264.1 ± 2 | 1244.4 ± 2
x1 = 0.8086 | 1024.27 ± 0.18 | 1019.61 ± 0.17 | 1015.04 ± 0.17 | 1284.7 ± 2 | 1265.4 ± 1.9 | 1246.2 ± 1.9
x1 = 0.8949 | 1047.98 ± 0.17 | 1043.25 ± 0.17 | 1038.71 ± 0.17 | 1289.1 ± 1.9 | 1270.5 ± 1.9 | 1250 ± 1.9
x1 = 1 | 1077.38 ± 0.15 | 1072.8 ± 0.15 | 1068.21 ± 0.15 | 1299.8 ± 1.9 | 1283.6 ± 1.9 | 1265.6 ± 1.9
